Literature values in patent US20040191328A1, “Combination of gallium compounds with nonchemotherapeutic anticancer agents in the treatment of neoplasia” (priority 2002, published 2004).

What was measured:
[1] = increased exposure secondary to decreased clearance

SMILES	dose reduction of paclitaxel and doxorubicin needed to achieve equivalent myelosuppression [1] [fold]	concentration at which growth inhibition occurs (cells in vitro; chronic exposure, low concentrations) [µg/mL]	concentration inducing both cellular cytotoxicity and inhibition of growth (cells in vitro; exposure of duration longer than 24 hours) [µg/mL]
C/C=C/C[C@@H](C)C(=O)[C@H]1C(=O)N[C@@H](C(C)C)C(=O)N(C)CC(=O)N(C)[C@@H](CC(C)C)C(=O)N[C@@H](C(C)C)C(=O)N(C)[C@@H](CC(C)C)C(=O)N[C@@H](C)C(=O)N[C@H](C)C(=O)N(C)[C@@H](CC(C)C)C(=O)N(C)[C@@H](CC(C)C)C(=O)N(C)[C@@H](C(C)C)C(=O)N1C [PSC 833]	2		
O=[N+]([O-])[O-].O=[N+]([O-])[O-].O=[N+]([O-])[O-].[Ga+3] [Gallium nitrate, gallium nitrate]		10	> 50
